Experimental data taken from ChEMBL document CHEMBL1152802, “Discovery of novel Trypanosoma cruzi glyceraldehyde-3-phosphate dehydrogenase inhibitors” (Bioorg Med Chem, 2009).

How the values were obtained:
[1] = molecular target: Glyceraldehyde-3-phosphate dehydrogenase, glycosomal (Trypanosoma cruzi, UniProt P22513); test: (§1) Inhibition of Trypanosoma cruzi recombinant glycosomal GAPDH expressed in Escherichia coli by spectrophotometry
[2] = molecular target: Glyceraldehyde-3-phosphate dehydrogenase, glycosomal (Trypanosoma cruzi) (UniProt P22513); test: as §1; details: concentration not given here
Chain of Glyceraldehyde-3-phosphate dehydrogenase, glycosomal (Trypanosoma cruzi) (P22513 whole entry): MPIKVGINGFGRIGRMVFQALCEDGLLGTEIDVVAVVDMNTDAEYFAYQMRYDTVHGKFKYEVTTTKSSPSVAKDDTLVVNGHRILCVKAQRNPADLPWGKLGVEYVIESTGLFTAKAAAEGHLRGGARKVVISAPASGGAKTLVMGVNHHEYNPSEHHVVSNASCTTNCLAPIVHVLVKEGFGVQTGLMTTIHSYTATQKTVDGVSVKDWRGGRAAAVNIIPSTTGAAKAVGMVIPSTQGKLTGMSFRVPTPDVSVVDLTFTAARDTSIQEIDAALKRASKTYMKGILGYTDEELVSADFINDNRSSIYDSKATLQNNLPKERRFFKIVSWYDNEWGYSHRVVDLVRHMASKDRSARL

Trypanosoma cruzi [3] = test: Antitrypanosomal activity against Trypanosoma cruzi amastigote forms; type: functional, organism-based
Leishmania amazonensis = test: Antileishmanial activity against Leishmania amazonensis amastigote forms at 841 uM; type: functional
Ehrlich = test: Cytotoxicity against mouse Ehrlich carcinoma cells; type: functional, cell-based
Trypanosoma cruzi [4] = test: Antitrypanosomal activity against Trypanosoma cruzi amastigote forms at 841 uM; type: functional

Chain of Glyceraldehyde-3-phosphate dehydrogenase, glycosomal (P22513 whole entry): as above

C=CC/C=C/C/C=C/CCCCCCCc1cccc(O)c1C(=O)O
IC50 [1]: 38 µM

CCCCCC/C=C/CCCCCCCc1cccc(O)c1C(=O)O
IC50 [1]: 161 µM

O=c1ccc2ccccc2o1 [COUMARIN]
IC50 [1]: 692 µM

COc1cc2oc(-c3cc(OC)c(OC)c(OC)c3)cc(=O)c2cc1OC
IC50 [1]: 81 µM

CC(=O)Oc1ccc(-c2cc3cc(OC(C)=O)c(OC(C)=O)cc3oc2=O)cc1OC(C)=O
IC50 [1]: 17.8 µM

COc1cccc(C(=O)N[C@@H]2[C@H](O)[C@@H](CO)O[C@H]2n2cnc3c(NCc4cccc5ccccc45)ncnc32)c1
IC50 [1]: 12 µM

CCC/C=C/C/C=C/CCCCCCCc1cccc(O)c1C(=O)O
IC50 [1]: 69 µM

O=c1ccc2ccc(O)cc2o1 [UMBELLIFERONE]
IC50 [1]: 617 µM

O=c1c(O[C@@H]2OC[C@H](O)[C@H](O)[C@H]2O)c(-c2ccc(O)c(O)c2)oc2cc(O)cc(O)c12 [GUAJAVERIN]
IC50 [1]: 140 µM

C[C@H]1[C@H](C)CC[C@]2(C(=O)O)CC[C@]3(C)C(=CC[C@@H]4[C@@]5(C)CC[C@H](O)C(C)(C)[C@@H]5CC[C@]43C)[C@H]12 [URSOLIC ACID]
inhibition [2]: 25% | IC50 (Trypanosoma cruzi [3]): 4 µM

O=c1c2cc(O)c(O)cc2oc2cc(O)c([C@@H]3O[C@H](CO)[C@@H](O)[C@H](O)[C@H]3O)c(O)c12 [MANGIFERIN]
IC50 [1]: 149 µM

C=CC(C)(C)c1cc2cc3c(cc2oc1=O)O[C@H](C(C)(C)O)C3 [CHALEPIN]
IC50 [1]: 64 µM

O=c1c(O)c(-c2ccc(O)c(O)c2)oc2cc(O)cc(O)c12 [QUERCETIN]
IC50 [1]: 142 µM | IC50 (Trypanosoma cruzi [3]): 771 µM

O=C(/C=C/c1ccc(O)cc1)OC[C@H]1O[C@@H](Oc2c(-c3ccc(O)cc3)oc3cc(O)cc(O)c3c2=O)[C@H](O)[C@@H](O)[C@@H]1O [TILIROSIDE]
Activity (Leishmania amazonensis): 67.8% | IC50 [1]: 46 µM | IC50 (Ehrlich): 69.5 µM | Activity (Trypanosoma cruzi [4]): 45%

COc1cccc(C(=O)N[C@@H]2[C@H](O)[C@@H](COP(=O)(O)O)O[C@H]2n2cnc3c(NCc4cccc5ccccc45)ncnc32)c1
IC50 [1]: 5 µM

COc1ccc(-c2coc3cc(O)c(OC)cc3c2=O)cc1 [CASTANIN]
IC50 [1]: 84 µM
